± gives the expanded uncertainty stated by the source.
Assay: mn = molality of the nth substance listed, in mol/kg
Conditions: Liquid; for viscosity: Falling or rolling sphere viscometry; for mass density: Vibrating tube method

O=S1(=O)CCCC1 [sulfolane] + O=C=O
Conditions | mass density [kg/m3] | viscosity [mPa·s]
303.15 K, 118.4 kPa, m2 = 0.103 | 1260 ± 1 | 9.99 ± 0.26
303.15 K, 191.2 kPa, m2 = 0.174 | 1259 ± 1 | 9.8 ± 0.26
303.15 K, 316.5 kPa, m2 = 0.284 | 1258 ± 1 | 9.36 ± 0.25
303.15 K, 495.3 kPa, m2 = 0.438 | 1256 ± 1 | 8.97 ± 0.24
303.15 K, 648.5 kPa, m2 = 0.598 | 1255 ± 1 | 8.34 ± 0.23
303.15 K, 777.7 kPa, m2 = 0.709 | 1254 ± 1 | 7.85 ± 0.23
303.15 K, 1063.8 kPa, m2 = 1.001 | 1253 ± 1 | 7 ± 0.21
303.15 K, 1253.8 kPa, m2 = 1.205 | 1252 ± 1 | 6.48 ± 0.2
303.15 K, 1447.1 kPa, m2 = 1.423 | 1252 ± 1 | 5.96 ± 0.19
313.15 K, 121.8 kPa, m2 = 0.0954 | 1252 ± 1 | 7.98 ± 0.2
313.15 K, 200.8 kPa, m2 = 0.1579 | 1250 ± 1 | 7.73 ± 0.2
313.15 K, 324.9 kPa, m2 = 0.2571 | 1249 ± 1 | 7.61 ± 0.19
313.15 K, 526 kPa, m2 = 0.4296 | 1247 ± 1 | 7.13 ± 0.18
313.15 K, 732.9 kPa, m2 = 0.5763 | 1246 ± 1 | 6.88 ± 0.18
313.15 K, 855.1 kPa, m2 = 0.6803 | 1245 ± 1 | 6.36 ± 0.17
313.15 K, 1169.6 kPa, m2 = 0.9594 | 1243 ± 1 | 5.81 ± 0.16
313.15 K, 1383.5 kPa, m2 = 1.159 | 1243 ± 1 | 5.28 ± 0.15
313.15 K, 1644.1 kPa, m2 = 1.385 | 1242 ± 1 | 4.99 ± 0.14
323.15 K, 141.1 kPa, m2 = 0.093 | 1242 ± 1 | 6.21 ± 0.16
323.15 K, 238.4 kPa, m2 = 0.163 | 1241 ± 1 | 6.1 ± 0.16
323.15 K, 392.8 kPa, m2 = 0.266 | 1239 ± 1 | 5.97 ± 0.15
323.15 K, 632 kPa, m2 = 0.417 | 1237 ± 1 | 5.69 ± 0.14
323.15 K, 817.7 kPa, m2 = 0.557 | 1235 ± 1 | 5.46 ± 0.14
323.15 K, 993.9 kPa, m2 = 0.692 | 1234 ± 1 | 5.16 ± 0.13
323.15 K, 1413.4 kPa, m2 = 1.019 | 1232 ± 1 | 4.68 ± 0.12
323.15 K, 1706.6 kPa, m2 = 1.217 | 1231 ± 1 | 4.28 ± 0.11
323.15 K, 2006.9 kPa, m2 = 1.472 | 1231 ± 1 | 3.98 ± 0.1
333.15 K, 153.2 kPa, m2 = 0.091 | 1233 ± 1 | 5.14 ± 0.13
333.15 K, 263.6 kPa, m2 = 0.158 | 1232 ± 1 | 5.09 ± 0.13
333.15 K, 436.2 kPa, m2 = 0.257 | 1229 ± 1 | 4.92 ± 0.13
333.15 K, 694.6 kPa, m2 = 0.415 | 1226 ± 1 | 4.5 ± 0.12
333.15 K, 896.4 kPa, m2 = 0.54 | 1224 ± 1 | 4.4 ± 0.11
333.15 K, 1035.8 kPa, m2 = 0.626 | 1223 ± 1 | 4.27 ± 0.11
333.15 K, 1456.6 kPa, m2 = 0.886 | 1220 ± 1 | 3.87 ± 0.1
333.15 K, 1761.6 kPa, m2 = 1.061 | 1218 ± 1 | 3.69 ± 0.1
343.15 K, 168.2 kPa, m2 = 0.087 | 1223 ± 1 | 4.19 ± 0.11
343.15 K, 296.7 kPa, m2 = 0.155 | 1222 ± 1 | 4.06 ± 0.11
343.15 K, 477.6 kPa, m2 = 0.249 | 1219 ± 1 | 4 ± 0.11
343.15 K, 758.5 kPa, m2 = 0.402 | 1216 ± 1 | 3.61 ± 0.1
343.15 K, 978.6 kPa, m2 = 0.526 | 1213 ± 1 | 3.63 ± 0.1
343.15 K, 1118.9 kPa, m2 = 0.603 | 1211 ± 1 | 3.46 ± 0.09
343.15 K, 1538.6 kPa, m2 = 0.853 | 1207 ± 1 | 3.24 ± 0.08
343.15 K, 1852.6 kPa, m2 = 1.011 | 1205 ± 1 | 3.02 ± 0.07
343.15 K, 2326.1 kPa, m2 = 1.305 | 1203 ± 1 | 2.92 ± 0.07
353.15 K, 178.9 kPa, m2 = 0.08 | 1215 ± 1 | 3.5 ± 0.09
353.15 K, 305 kPa, m2 = 0.137 | 1212 ± 1 | 3.27 ± 0.09
353.15 K, 509.4 kPa, m2 = 0.232 | 1209 ± 1 | 3.14 ± 0.08
353.15 K, 828 kPa, m2 = 0.38 | 1205 ± 1 | 3.16 ± 0.08
353.15 K, 1248.9 kPa, m2 = 0.581 | 1199 ± 1 | 3 ± 0.07
353.15 K, 1720.3 kPa, m2 = 0.822 | 1194 ± 1 | 2.78 ± 0.06
353.15 K, 1911.1 kPa, m2 = 0.924 | 1192 ± 1 | 2.62 ± 0.06
363.15 K, 188.8 kPa, m2 = 0.076 | 1205 ± 1 | 2.84 ± 0.07
363.15 K, 327.8 kPa, m2 = 0.133 | 1203 ± 1 | 2.74 ± 0.07
363.15 K, 555 kPa, m2 = 0.225 | 1199 ± 1 | 2.64 ± 0.07
363.15 K, 902.8 kPa, m2 = 0.366 | 1194 ± 1 | 2.49 ± 0.06
363.15 K, 1404.2 kPa, m2 = 0.573 | 1189 ± 1 | 2.39 ± 0.06
363.15 K, 2015 kPa, m2 = 0.822 | 1185 ± 1 | 2.24 ± 0.05

Source: the NIST ThermoML archive (doi:10.1016/j.jct.2015.01.001)
